This note sets out measurements from patent US12215118B2, “Quinone methide analog signal amplification” (Ventana Medical Systems, Inc., priority 2014, dated 2025).

For data set [1], the system named is alkaline phosphatase (AP). Briefly: Trapping of the QM intermediate with Tris in solution, HPLC-MS. Type of data set: biochemical. The settings on record: pH 10 Tris buffer. Here is the method:
To probe the mechanism of staining and quenching, an attempt was made to trap the QM intermediate formed by monofluoro QM precursor 7 in solution-phase under similar conditions to those utilized in the staining experiments (FIG. 26). QM precursor 7 was dissolved in pH 10 Tris buffer followed by addition of a catalytic amount of AP. The reaction progress was monitored by HPLC-MS (FIG. 27, panels A-C). Within 10 minutes, complete conversion to the Tris adduct 7-tris was observed (panel C).

Data set [2] concerns Bcl2 on FFPE tonsil tissue. In words: HRP DAB amplified by QMP-biotin with different linkers. The settings on record: 100 nM, CHES pH 10.0, different linkers. Here is the method:
The tissue was deparaffinized and retrieved as described in the general procedures. Mouse-anti-Bcl-2 antibody incubation (37° C., 16 minutes) and washing were followed by secondary antibody incubation with a goat polyclonal anti-mouse antibody conjugated to AP (37° C.; 12 minutes). After incubating with the AP conjugate the slides were washed with Special Stains wash. Monofluoro QMP-biotin (with aniline amide (FIG. 23(A)), benzoic amide (FIG. 23(B)) or tyramide amide linker (FIG. 23(C)) (100 nM) was dissolved in 100 mM CHES, pH 10.0, 0.05% Brij-35 to a final concentration of 100 nM. QMP turnover was achieved by adding 100 μL of AP Enhancer followed by 100 μL of biotin labeled QMP and incubating at 37° C. for 16 minutes. The deposited biotin was subsequently bound by a streptavidin-HRP conjugate (37° C.; 8 minutes), and visualized via a brown precipitate produced by HRP upon the addition of hydrogen peroxide and DAB (37° C.; 8 minutes). The DAB was toned by the addition of copper sulfate (37° C.; 4 minutes). The stained tissue sections were counterstained with modified Mayer's hematoxylin (37° C.; 4 minutes) and then incubated with Bluing Reagent (37° C.; 4 minutes). They were then dehydrated through a graded ethanol series, cleared with xylene, and manually cover-slipped.

In data set [3] the test system is BCL6 on FFPE tonsil tissue. In words: AP-based CARD IHC with biotinylated QM precursor followed by DAB detection. Here is the method: Detection 1—HRP DAB. After incubating with the AP conjugate the slides were washed with Special Stains wash (VMSI #860-015). QMP reagents were dissolved in 100 mM CHES (3-cyclo-hexylamino-ethylsulfonic acid), pH 10.0, 0.05% Brij-35. QMP turnover was achieved by adding 100 μL of AP Enhancer (VMSI #253-2182) followed by 100 μL of hapten labeled QMP and incubating at 37° C. for 16 minutes. Compound 29 is an exemplary hapten-QMP that could be used according to this method. The deposited hapten was subsequently bound by a mouse-anti-hapten-HRP conjugate (or streptavidin-HRP) (37° C.; 8 minutes), and visualized via a brown precipitate produced by HRP upon the addition of hydrogen peroxide and DAB (37° C.; 8 minutes). The DAB was toned by the addition of copper sulfate (37° C.; 4 minutes). The stained tissue sections were counterstained with modified Mayer's hematoxylin (Hematoxylin II, VMSI #790-2208) (37° C.; 4 minutes) and then incubated with Bluing Reagent (VMSI #760-2037) (37° C.; 4 minutes). The slides were then dehydrated through a graded ethanol series, cleared with xylene, and manually cover-slipped.
Both compounds utilize fluoride as the leaving group, but the reactivity of the QM derived from difluoro compound 58 should be considerably lower than monofluoro 7 due to the electronic stabilization offered by the geminal fluorine atom. […] Therefore, the difluoro QM precursor compound 58 was evaluated first for IHC staining performance on FFPE tissue using the nuclear marker BCL6 on FFPE tonsil tissue as a model system. The biotin-labeled difluoro QM precursor successfully bound to the sample as evidenced by subsequent biotin visualization using diaminobenzidine (DAB) detection. FIG. 18 provides microphotographs illustrating the detection level at varying concentrations of the difluoro QM precursor in a Tris buffer at pH=8.5 (panel A—DAB control, panel B—1 μM, panel C—10 μM and panel D—20 μM). In addition, significant amplification of signal was observed compared to the DAB control sample when on-slide concentrations of difluoro QM precursor compound 58 greater than […] were utilized.
To test the effect of pH on signal diffusion, difluoro QM precursor compound 58 was deposited as before at various pH levels within the working range for AP (7-12 with two shoulders of maximal activity at pH=8.5 and 11). The nuclear marker BCL6 on FFPE tonsil tissue was again chosen as the model. Positive staining was observed across the entire pH range, although a balance between overall signal and diffusion was seen. FIG. 19, panels A-H provide microphotographs of the detection levels of 20 µM QM precursor in Tris buffer with varying pH: panel A—DAB control; panel B pH=7.0; panel C pH=8.0; panel D pH=8.5; panel E pH=9.0; panel F pH=10.0; panel G pH=11.0; panel H pH=12.0. The diffusion appears to decrease with increasing pH. […] The level of amplification increased only as the pH rose to 8.5 and then decreased gradually over the rest of the range. This effect may be due to a combination of enzyme activity and the population of QM quenchers in the reaction media. At pH levels well below the optimal AP reaction conditions (7.0), the activity of AP was depressed, resulting in low signal. As the pH increased (8.0-8.5) but remained near the pKa of Tris (8.1), the activity of AP increased at a faster rate than the population of quenchers in the reaction media, leading to a significant increase in signal. Raising the pH further (9-10) increased the quencher population while decreasing AP activity, resulting in a decrease of signal. Although AP had maximal activity at pH 11 in Tris, a slight decrease in staining intensity was observed, most likely due to the excessively high population of quenchers that could not be overcome by the increased AP activity (raising the pH from 8.5 to 11 increases [Tris base] about 50%, with AP activity increasing by only about 20%). […]

Regarding `O=C(CCCCC1SCC2NC(=O)NC21)NCCCCCC(=O)Nc1ccc(OP(=O)(O)O)c(CF)c1` (centres unmarked) [Compound 7, 2-(fluoromethyl)-4-(6-(5-(2-oxohexahydro-1H-thieno[3,4-d]imidazol-4-yl)pentanamido)hexanamido)phenyl dihydrogen phosphate], the “time to complete conversion to the Tris adduct” value in data set [1] (catalytic amount of AP) is ≤ 10 min. Moreover, the “reaction in the absence of AP” value in data set [1] (no AP) was “no reaction took place”. In data set [2], the signal resolution entry is “well resolved signals”. Moreover, in data set [3] (250 nM, Tris buffer, pH of 10), the “diffusion and off-target staining” value is listed as “nearly eliminated”. In data set [3] (pH 8.5 in Tris buffer), the “concentration required to give the desired level of amplification” value is given as 250 nM and the “overall diffusion compared to difluoro QM precursor 58” value is listed as “greatly reduced”.
For `O=C(CCCCC1SCC2NC(=O)NC21)NCCc1ccc(OP(=O)(O)O)c(CF)c1` (centres unmarked) [Compound 14, 2-(fluoromethyl)-4-(2-(5-(2-oxohexahydro-1H-thieno[3,4-d]imidazol-4-yl)pentanamido)ethyl)phenyl dihydrogen phosphate], the signal resolution result in data set [2] was “well resolved signals”.
As for `O=C(CCCCC1SCC2NC(=O)NC21)NCCCCCNC(=O)c1ccc(OP(=O)(O)O)c(CF)c1` (centres unmarked) [Compound 21, 2-(fluoromethyl)-4-((5-(5-(2-oxohexahydro-1H-thieno[3,4-d]imidazol-4-yl)pentanamido)pentyl)carbamoyl)phenyl dihydrogen phosphate], in data set [2], the signal resolution result is on record as “more diffuse, less resolved signal”.
